In US7189850B2, “Triaza-spiropiperidine derivatives” (Hoffmann-La Roche Inc., priority 2003, dated 2007):
Like-named read-outs stand apart in the source and are kept apart here.

Experiments:
[1] = target: T1, mGlyT-1b (Mus musculus, UniProt P28571); assay: Glycine uptake inhibition assay (mGlyT-1b); format: cell-based
T1 sequence (P28571 1-651 isoform P28571-2): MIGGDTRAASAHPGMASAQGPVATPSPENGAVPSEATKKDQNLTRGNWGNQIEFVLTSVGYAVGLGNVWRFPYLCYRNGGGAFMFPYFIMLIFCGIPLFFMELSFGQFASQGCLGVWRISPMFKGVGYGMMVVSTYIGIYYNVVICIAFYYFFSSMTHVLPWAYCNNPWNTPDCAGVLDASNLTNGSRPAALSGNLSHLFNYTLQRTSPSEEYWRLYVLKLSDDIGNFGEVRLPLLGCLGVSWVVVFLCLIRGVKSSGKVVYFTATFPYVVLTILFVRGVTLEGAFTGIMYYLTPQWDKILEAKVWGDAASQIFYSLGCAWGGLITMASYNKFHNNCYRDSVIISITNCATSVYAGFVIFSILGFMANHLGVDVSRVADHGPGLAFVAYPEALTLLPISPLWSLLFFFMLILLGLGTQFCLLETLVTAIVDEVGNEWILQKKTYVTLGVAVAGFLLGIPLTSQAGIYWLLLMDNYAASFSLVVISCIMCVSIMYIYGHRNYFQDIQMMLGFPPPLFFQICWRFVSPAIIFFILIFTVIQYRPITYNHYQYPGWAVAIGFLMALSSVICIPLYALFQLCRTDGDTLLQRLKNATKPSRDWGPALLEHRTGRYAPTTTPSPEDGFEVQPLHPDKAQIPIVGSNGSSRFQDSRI

Row | SMILES | IC50 [1] | other results
1 | O=C1NCN(c2ccccc2)C12CCN(C1CCCCC1c1ccccc1)CC2 (racemic) [Example 1, (rac,cis)-1-Phenyl-8-(2-phenyl-cyclohexyl)-1,3,8-triaza-spiro[4.5]decan-4-one] | – | melting point: 205 to 208 °C
2 | Cc1ccc(C2CCCCC2N2CCC3(CC2)C(=O)NCN3c2ccccc2)cc1 (racemic) [Example 8, (rac,cis)-1-Phenyl-8-(2-p-tolyl-cyclohexyl)-1,3,8-triaza-spiro[4.5]decan-4-one] | – | melting point: 174 to 176 °C
3 | O=C1NCN(c2ccccc2)C12CCN([C@H]1CCCC[C@H]1c1ccc(F)cc1)CC2 (racemic) [Example 10, (rac,cis)-8-[2-(4-Fluoro-phenyl)-cyclohexyl]-1-phenyl-1,3,8-triaza-spiro[4.5]decan-4-one] | – | melting point: 198 to 200 °C
4 | O=C1NCN(c2ccccc2)C12CCN([C@H]1CCCC[C@H]1c1ccc(Cl)cc1)CC2 (racemic) [Example 11, (rac,cis)-8-[2-(4-Chloro-phenyl)-cyclohexyl]-1-phenyl-1,3,8-triaza-spiro[4.5]decan-4-one] | – | melting point: 204 to 206 °C
5 | O=C1NCN(c2ccccc2)C12CCN([C@H]1CCCC[C@H]1c1ccc(Cl)c(Cl)c1)CC2 (racemic) [Example 13, (rac,cis)-8-[2-(3,4-Dichloro-phenyl)-cyclohexyl]-1-phenyl-1,3,8-triaza-spiro[4.5]decan-4-one] | – | melting point: 198 to 200 °C
6 | O=C1NCN(c2ccc(F)cc2)C12CCN([C@H]1CCCC[C@H]1c1ccc(Cl)cc1)CC2 (racemic) [Example 17, (rac,cis)-8-[2-(4-Chloro-phenyl)-cyclohexyl]-1-(4-fluoro-phenyl)-1,3,8-triaza-spiro[4.5]decan-4-one] | 74 nM | –
7 | Cc1ccc(C2CCCCC2N2CCC3(CC2)C(=O)NCN3c2ccc(F)cc2)cc1 (racemic) [Example 22, (rac,cis)-1-(4-Fluoro-phenyl)-8-(2-p-tolyl-cyclohexyl)-1,3,8-triaza-spiro[4.5]decan-4-one] | 29 nM | –
8 | O=C1NCN(c2ccc(F)cc2)C12CCN(C1CCCCC1c1ccc(F)cc1)CC2 (racemic) [Example 24, (rac,cis)-1-(4-Fluoro-phenyl)-8-[2-(4-fluoro-phenyl)-cyclohexyl]-1,3,8-triaza-spiro[4.5]decan-4-one] | 67 nM | –
9 | CC(C)CCN1CNC(=O)C12CCN(C1CCCCC1c1ccccc1)CC2 (racemic) [Example 54, (rac,cis)-1-(3-Methyl-butyl)-8-(2-phenyl-cyclohexyl)-1,3,8-triaza-spiro[4.5]decan-4-one] | 52 nM | –
10 | O=C1NCN(c2ccc(Cl)c(Cl)c2)C12CCN(C1CCCCC1c1ccccc1)CC2 (racemic) [Example 59, (rac,cis)-1-(3,4-Dichloro-phenyl)-8-(2-phenyl-cyclohexyl)-1,3,8-triaza-spiro[4.5]decan-4-one] | 32 nM | –
11 | O=C1NCN(c2ccccc2)C12CCN(C1CCCCC1c1ccccc1)CC2 (racemic) [Example 68, (rac,trans)-1-Phenyl-8-(2-phenyl-cyclohexyl)-1,3,8-triaza-spiro[4.5]decan-4-one] | – | melting point: 254 to 256 °C
12 | O=C1NCN(c2ccccc2)C12CCN(C1CCCCC1(O)c1ccccc1)CC2 (racemic) [Example 74, (rac,cis)-8-(2-Hydroxy-2-phenyl-cyclohexyl)-1-phenyl-1,3,8-triaza-spiro[4.5]decan-4-one] | 44 nM | –
13 | O=C1NCN(c2ccccc2)C12CCN(C1CCCCC1(O)c1ccc(F)cc1)CC2 (racemic) [Example 75, (rac,cis)-8-[2-(4-Fluoro-phenyl)-2-hydroxy-cyclohexyl]-1-phenyl-1,3,8-triaza-spiro[4.5]decan-4-one] | 41 nM | –
14 | Cc1ccccc1C1(O)CCCCC1N1CCC2(CC1)C(=O)NCN2c1ccccc1 (racemic) [Example 76, (rac,cis)-8-(2-Hydroxy-2-o-tolyl-cyclohexyl)-1-phenyl-1,3,8-triaza-spiro[4.5]decan-4-one] | 50 nM | –
15 | O=C1NCN(c2ccccc2)C12CCN(C1CCCCC1(O)c1ccncc1)CC2 (racemic) [Example 77, (rac,cis) 8-(2-Hydroxy-2-pyridin-4-yl-cyclohexyl)-1-phenyl-1,3,8-triaza-spiro[4.5]decan-4-one] | 62 nM | –
16 | O=C1NCN(c2ccccc2)C12CCN(C1CCCCC1(O)c1ccc(Cl)cc1)CC2 (racemic) [Example 78, (rac,cis)-8-[2-(4-Chloro-phenyl)-2-hydroxy-cyclohexyl]-1-phenyl-1,3,8-triaza-spiro[4.5]decan-4-one] | 86 nM | –
17 | O=C1NCN(c2ccc(F)cc2)C12CCN(C1CCCCC1(O)c1ccc(F)cc1)CC2 (racemic) [Example 87, (rac,cis)-1-(4-Fluoro-phenyl)-8-[2-(4-fluoro-phenyl)-2-hydroxy-cyclohexyl]-1,3,8-triaza-spiro[4.5]decan-4-one] | 24 nM | –
18 | O=C1NCN(c2ccc(F)cc2)C12CCN(C1CCCCC1(O)c1ccc(Cl)cc1)CC2 (racemic) [Example 88, (rac,cis)-8-[2-(4-Chloro-phenyl)-2-hydroxy-cyclohexyl]-1-(4-fluoro-phenyl)-1,3,8-triaza-spiro[4.5]decan-4-one] | 60 nM | –
19 | O=C1NCN(c2ccc(Cl)cc2)C12CCN(C1CCCCC1(O)c1ccc(F)cc1)CC2 (racemic) [Example 89, (rac,cis)-1-(4-Chloro-phenyl)-8-[2-(4-fluoro-phenyl)-2-hydroxy-cyclohexyl]-1,3,8-triaza-spiro[4.5]decan-4-one] | 15 nM | –
20 | O=C1NCN(c2ccc(Cl)cc2)C12CCN(C1CCCCC1(O)c1ccc(Cl)cc1)CC2 (racemic) [Example 90, (rac,cis)-1-(4-Chloro-phenyl)-8-[2-(4-chloro-phenyl)-2-hydroxy-cyclohexyl]-1,3,8-triaza-spiro[4.5]decan-4-one] | 43 nM | –
21 | Cc1ccc(N2CNC(=O)C23CCN(C2CCCCC2(O)c2ccc(F)cc2)CC3)cc1 (racemic) [Example 91, (rac,cis)-8-[2-(4-Fluoro-phenyl)-2-hydroxy-cyclohexyl]-1-p-tolyl-1,3,8-triaza-spiro[4.5]decan-4-one] | – | IC50 ([1]; Flp-in-CHO cells stably transfected with mGlyT-1b cDNA, [3H]-glycine 60 nM and 25 μM non-radioactive glycine, 20 min preincubation at 22° C., read-out: IC50 at GlyT-1 (inhibition of glycine uptake)): 39 nM
22 | COc1ccc(N2CNC(=O)C23CCN(C2CCCCC2(O)c2ccc(Cl)cc2)CC3)cc1 (racemic) [Example 92, (rac,cis)-8-[2-(4-Chloro-phenyl)-2-hydroxy-cyclohexyl]-1-(4-methoxy-phenyl)-1,3,8-triaza-spiro[4.5]decan-4-one] | 99 nM | –
23 | O=C1NCN(c2ccccc2)C12CCN(C1COCCC1(O)c1ccccc1)CC2 (racemic) [Example 99, (rac,cis)-8-(4-Hydroxy-4-phenyl-tetrahydro-pyran-3-yl)-1-phenyl-1,3,8-triaza-spiro[4.5]decan-4-one] | 58 nM | –
24 | O=C1NCN(c2ccccc2)C12CCN(C1CCOCC1(O)c1ccccc1)CC2 (racemic) [Example 100, (rac,cis)-8-(3-Hydroxy-3-phenyl-tetrahydro-pyran-4-yl)-1-phenyl-1,3,8-triaza-spiro[4.5]decan-4-one] | 90 nM | –
25 | O=C1NCN(c2ccccc2)C12CCN(C1CCCCC1(O)c1ccccc1)CC2 (racemic) [Example 101, (rac,trans)-8-(2-Hydroxy-2-phenyl-cyclohexyl)-1-phenyl-1,3,8-triaza-spiro[4.5]decan-4-one] | 56 nM | –
